Experimental data as given in the supplement of paper PMC10331698.
± gives the standard deviation of the averaged measurements.

Tests used:
Experiment in all cases: level (log10 ratio to DMSO vehicle control); higher = higher biomarker level / cell amount than vehicle control
[1] = compound: C=C(C)C(=O)OCCC(F)(F)C(F)(F)C(F)(F)C(F)(F)C(F)(F)C(F)(F)F [6:2 Fluorotelomer methacrylate]; settings: in DMSO
Description: (§1)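 BioMAP Diversity Plus panel of 12 human primary cell co-culture systems (3C, 4H, LPS, SAg, BT, BF4T, BE3C, CASM3C, HDF3CGF, KF3CT, MyoF, Mphg). Compounds were added 1 h before stimulation and left for 24 h (MyoF 48 h; BT 72 h for soluble read-outs or 6 d for IgG). Biomarkers were read by ELISA, cytotoxicity by SRB, PBMC viability and proliferation by Alamar Blue. Each well value was divided by the mean of 8 DMSO control wells on the same plate and log10 transformed; duplicate blinded samples were tested at 4 concentrations.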

[2] = compound: C=CC(=O)OCC(F)(F)C(F)(F)C(F)(F)COC(=O)C=C [1H,1H,5H,5H-Perfluoro-1,5-pentanediol diacrylate]; settings: 6700 nM; in DMSO
Description: as §1

[3] = compound: COC(=O)C(F)(F)C(F)(F)OC(F)(C(F)(F)F)C(F)(F)OC(F)=C(F)F [Methyl perfluoro(3-(1-ethenyloxypropan-2-yloxy)propanoate)]; settings: in DMSO
Description: as §1

[4] = compound: FC(F)(F)C(F)(F)C(F)(F)C(F)(F)C(F)(F)C(F)(F)C(F)(F)I [1-Iodopentadecafluoroheptane]; settings: in DMSO
Description: as §1

[5] = compound: FC(F)(F)C(F)(F)C(F)(F)C(F)(F)C(F)(F)C(F)(F)CC1CO1 [3-(Perfluorohexyl)-1,2-epoxypropane]; settings: in DMSO
Description: as §1

[6] = compound: FC(F)(F)C(F)(F)C(F)(F)CC1CO1 [1H,1H-Heptafluorobutyl epoxide]; settings: in DMSO
Description: as §1

Heptafluorobutyl iodide = compound: FC(F)(F)C(F)(F)C(F)(F)CI [Heptafluorobutyl iodide]; settings: in DMSO
Description: as §1

[7] = compound: FC(F)(F)C(F)(F)CNCC(F)(F)C(F)(F)F [Bis(1H,1H-perfluoropropyl)amine]; settings: in DMSO
Description: as §1

Octafluoroadipamide = compound: NC(=O)C(F)(F)C(F)(F)C(F)(F)C(F)(F)C(N)=O [Octafluoroadipamide]; settings: in DMSO
Description: as §1

Nonafluoropentanamide = compound: NC(=O)C(F)(F)C(F)(F)C(F)(F)C(F)(F)F [Nonafluoropentanamide]; settings: in DMSO
Description: as §1

[8] = compound: NC(=O)C(F)(F)C(F)(F)C(F)(F)C(F)F; settings: in DMSO
Description: as §1

[9] = compound: NS(=O)(=O)C(F)(F)C(F)(F)C(F)(F)C(F)(F)C(F)(F)C(F)(F)F [Perfluorohexanesulfonamide]; settings: in DMSO
Description: as §1

[10] = compound: O=C(O)C(F)(F)C(F)(F)C(F)(F)C(F)(F)C(F)(F)C(F)(F)C(F)(F)C(F)(F)C(F)(F)C(F)F [11-H-Perfluoroundecanoic acid]; settings: in DMSO
Description: as §1

[11] = compound: O=C(O)C=CC(F)(C(F)(F)F)C(F)(F)F [3-(Perfluoroisopropyl)-2-propenoic acid]; settings: in DMSO
Description: as §1

[12] = compound: O=S(=O)(Cl)C(F)(F)C(F)(F)C(F)(F)C(F)(F)C(F)(F)C(F)(F)C(F)(F)C(F)(F)F [Perfluoro-1-octanesulfonyl chloride]; settings: in DMSO
Description: as §1

[13] = compound: O=S(=O)(F)C(F)(F)C(F)(F)C(F)(F)C(F)(F)C(F)(F)C(F)(F)C(F)(F)C(F)(F)F [Perfluorooctanesulfonyl fluoride]; settings: in DMSO
Description: as §1

[14] = compound: O=S(=O)(O)C(F)(F)C(F)(F)C(F)(F)C(F)(F)C(F)(F)C(F)(F)C(F)(F)C(F)(F)C(F)(F)C(F)(F)F [Sodium perfluorodecanesulfonate]; settings: in DMSO
Description: as §1

[15] = compound: O=S(=O)(O)CCC(F)(F)C(F)(F)C(F)(F)C(F)(F)C(F)(F)C(F)(F)F [6:2 Fluorotelomer sulfonic acid]; settings: in DMSO
Description: as §1

Hexafluoroamylene glycol = compound: OCC(F)(F)C(F)(F)C(F)(F)CO [Hexafluoroamylene glycol]; settings: in DMSO
Description: as §1

In the case of lMphg:CD69, the “level (log10)” value ([1]; 6700 nM) is reported as -0.0125 ± 0.049, the “level (log10)” value ([1]; 20000 nM) is reported as -0.046 ± 0.0028 and the “level (log10)” value ([1]; 60000 nM) is reported as -0.0915 ± 0.019. The “level (log10)” value [2] was -0.0015 ± 0.0078, the “level (log10)” value ([3]; 6700 nM) was -0.067 ± 0.047 and the “level (log10)” value ([3]; 20000 nM) was -0.0985 ± 0.07. For the same test system, the “level (log10)” value ([4]; 6700 nM) was -0.0455 ± 0.043, the “level (log10)” value ([4]; 20000 nM) was -0.079 ± 0.062 and the “level (log10)” value ([5]; 6700 nM) was 0.004 ± 0.025. The “level (log10)” value ([5]; 20000 nM) was -0.007 ± 0.021, the “level (log10)” value ([5]; 60000 nM) was 0.0235 ± 0.049 and the “level (log10)” value ([6]; 6700 nM) was -0.0285 ± 0.0064. For the same test system, the “level (log10)” value ([6]; 20000 nM) was 0.005 ± 0.041, the “level (log10)” value ([6]; 60000 nM) was 0.045 ± 0.081 and the “level (log10)” value (Heptafluorobutyl iodide; 6700 nM) was -0.048 ± 0.03. The “level (log10)” value (Heptafluorobutyl iodide; 20000 nM) was -0.033, the “level (log10)” value (Heptafluorobutyl iodide; 60000 nM) was -0.026 ± 0.025 and the “level (log10)” value ([7]; 6700 nM) was -0.017 ± 0.028. For the same test system, the “level (log10)” value ([7]; 20000 nM) was -0.012 ± 0.03, the “level (log10)” value ([7]; 60000 nM) was 0.0045 ± 0.14 and the “level (log10)” value (Octafluoroadipamide; 6700 nM) was -0.0425 ± 0.052. For the same test system, the “level (log10)” value (Octafluoroadipamide; 20000 nM) was -0.027 ± 0.042, the “level (log10)” value (Octafluoroadipamide; 60000 nM) was 0.0275 ± 0.063 and the “level (log10)” value (Nonafluoropentanamide; 6700 nM) was -0.005. For the same test system, the “level (log10)” value (Nonafluoropentanamide; 20000 nM) was -0.021 ± 0.016, the “level (log10)” value (Nonafluoropentanamide; 60000 nM) was -0.028 ± 0.018 and the “level (log10)” value ([8]; 6700 nM) was 0.0265 ± 0.018. For the same test system, the “level (log10)” value ([8]; 20000 nM) was -0.015 ± 0.0071, the “level (log10)” value ([8]; 60000 nM) was -0.0115 ± 0.0078 and the “level (log10)” value ([9]; 6700 nM) was -0.02 ± 0.023. For the same test system, the “level (log10)” value ([9]; 20000 nM) was -0.066 ± 0.02, the “level (log10)” value ([9]; 60000 nM) was -0.169 ± 0.0085 and the “level (log10)” value ([10]; 6700 nM) was -0.054 ± 0.0085. For the same test system, the “level (log10)” value ([10]; 20000 nM) was -0.039 ± 0.013, the “level (log10)” value ([11]; 6700 nM) was -0.0265 ± 0.022 and the “level (log10)” value ([11]; 20000 nM) was -0.021 ± 0.035. For the same test system, the “level (log10)” value ([11]; 60000 nM) was 0.0235 ± 0.049, the “level (log10)” value ([12]; 6700 nM) was -0.054 ± 0.0099 and the “level (log10)” value ([12]; 20000 nM) was -0.0855 ± 0.033. The “level (log10)” value ([12]; 60000 nM) was -0.111 ± 0.09, the “level (log10)” value ([13]; 6700 nM) was -0.0075 ± 0.036 and the “level (log10)” value ([13]; 20000 nM) was -0.0125 ± 0.029. The “level (log10)” value ([13]; 60000 nM) was -0.0175 ± 0.032, the “level (log10)” value ([14]; 1500 nM) was -0.001 ± 0.014 and the “level (log10)” value ([14]; 4400 nM) was -0.022 ± 0.052. For the same test system, the “level (log10)” value ([14]; 13000 nM) was -0.0095 ± 0.032, the “level (log10)” value ([14]; 40000 nM) was -0.084 ± 0.011 and the “level (log10)” value ([15]; 6700 nM) was -0.034 ± 0.04. For the same test system, the “level (log10)” value ([15]; 20000 nM) was -0.065 ± 0.054, the “level (log10)” value ([15]; 60000 nM) was -0.073 ± 0.025 and the “level (log10)” value (Hexafluoroamylene glycol; 6700 nM) was -0.046 ± 0.027. For the same test system, the “level (log10)” value (Hexafluoroamylene glycol; 20000 nM) was -0.0425 ± 0.025 and the “level (log10)” value (Hexafluoroamylene glycol; 60000 nM) was -0.027 ± 0.0071.
In the case of lMphg:CXCL8/IL-8, the “level (log10)” value ([1]; 6700 nM) is reported as 0.0275 ± 0.005, the “level (log10)” value ([1]; 20000 nM) is reported as 0.0205 ± 0.0092 and the “level (log10)” value ([1]; 60000 nM) is reported as 0.0425 ± 0.026. For the same test system, the “level (log10)” value [2] was 0.03 ± 0.0099, the “level (log10)” value ([3]; 6700 nM) was 0.135 and the “level (log10)” value ([3]; 20000 nM) was 0.211 ± 0.014. For the same test system, the “level (log10)” value ([4]; 6700 nM) was -0.018 ± 0.0071, the “level (log10)” value ([4]; 20000 nM) was 0.0165 ± 0.019 and the “level (log10)” value ([5]; 6700 nM) was -0.0215 ± 0.0035. For the same test system, the “level (log10)” value ([5]; 20000 nM) was -0.0125 ± 0.019, the “level (log10)” value ([5]; 60000 nM) was 0.04 ± 0.05 and the “level (log10)” value ([6]; 6700 nM) was -0.0265 ± 0.015. For the same test system, the “level (log10)” value ([6]; 20000 nM) was -0.019 ± 0.021, the “level (log10)” value ([6]; 60000 nM) was -0.0105 ± 0.029 and the “level (log10)” value (Heptafluorobutyl iodide; 6700 nM) was -0.0335 ± 0.028. For the same test system, the “level (log10)” value (Heptafluorobutyl iodide; 20000 nM) was -0.0275 ± 0.00071, the “level (log10)” value (Heptafluorobutyl iodide; 60000 nM) was -0.0415 ± 0.0078 and the “level (log10)” value ([7]; 6700 nM) was 0 ± 0.011. The “level (log10)” value ([7]; 20000 nM) was 0.0075 ± 0.069, the “level (log10)” value ([7]; 60000 nM) was -0.0035 ± 0.053 and the “level (log10)” value (Octafluoroadipamide; 6700 nM) was 0.003 ± 0.054. For the same test system, the “level (log10)” value (Octafluoroadipamide; 20000 nM) was -0.0095 ± 0.069, the “level (log10)” value (Octafluoroadipamide; 60000 nM) was 0.0455 ± 0.026 and the “level (log10)” value (Nonafluoropentanamide; 6700 nM) was 0.012 ± 0.041. For the same test system, the “level (log10)” value (Nonafluoropentanamide; 20000 nM) was 0.005 ± 0.02, the “level (log10)” value (Nonafluoropentanamide; 60000 nM) was 0.027 ± 0.014 and the “level (log10)” value ([8]; 6700 nM) was -0.0235 ± 0.0078. For the same test system, the “level (log10)” value ([8]; 20000 nM) was -0.0225 ± 0.028, the “level (log10)” value ([8]; 60000 nM) was 0.0185 ± 0.047 and the “level (log10)” value ([9]; 6700 nM) was 0.05 ± 0.014. The “level (log10)” value ([9]; 20000 nM) was 0.083 ± 0.011, the “level (log10)” value ([9]; 60000 nM) was 0.146 ± 0.0085 and the “level (log10)” value ([10]; 6700 nM) was -0.0045 ± 0.0078. The “level (log10)” value ([10]; 20000 nM) was -0.031 ± 0.0042, the “level (log10)” value ([11]; 6700 nM) was -0.0225 ± 0.0021 and the “level (log10)” value ([11]; 20000 nM) was -0.006 ± 0.0028. The “level (log10)” value ([11]; 60000 nM) was 0.0415 ± 0.054, the “level (log10)” value ([12]; 6700 nM) was -0.002 ± 0.017 and the “level (log10)” value ([12]; 20000 nM) was 0.0335 ± 0.00071. For the same test system, the “level (log10)” value ([12]; 60000 nM) was 0.115 ± 0.061, the “level (log10)” value ([13]; 6700 nM) was 0.0275 ± 0.0078 and the “level (log10)” value ([13]; 20000 nM) was 0.0145 ± 0.013. For the same test system, the “level (log10)” value ([13]; 60000 nM) was 0.0335 ± 0.011, the “level (log10)” value ([14]; 1500 nM) was 0.0185 ± 0.032 and the “level (log10)” value ([14]; 4400 nM) was 0.0015 ± 0.005. For the same test system, the “level (log10)” value ([14]; 13000 nM) was 0.042 ± 0.0071, the “level (log10)” value ([14]; 40000 nM) was 0.131 ± 0.013 and the “level (log10)” value ([15]; 6700 nM) was -0.0115 ± 0.005. The “level (log10)” value ([15]; 20000 nM) was 0.022 ± 0.014, the “level (log10)” value ([15]; 60000 nM) was 0.0725 ± 0.0092 and the “level (log10)” value (Hexafluoroamylene glycol; 6700 nM) was 0.014 ± 0.021. The “level (log10)” value (Hexafluoroamylene glycol; 20000 nM) was -0.0215 ± 0.016 and the “level (log10)” value (Hexafluoroamylene glycol; 60000 nM) was 0.0185 ± 0.06.
